Reference: patent US20220306695A1, “COMPSTATIN ANALOGUES AND THEIR MEDICAL USES” (priority 2019, published 2022)
Starred links: 1 amine or outer side, 2 acyl side, 3 side chain; linkers in the order of their positions; H or OH if unused. Positions of bridges follow the written chain, without caps; N, C: chain ends. Non-standard residues stand in square brackets, D forms with d. Residues, ends and D or L forms follow the SMILES beside them. Groups on a side chain read outwards from the residue. *: point of attachment. Trp(1-Me) = Cn1cc(C[C@H](N)C(=O)O)c2ccccc21; C18 diacid = O=C(O)CCCCCCCCCCCCCCCCC(=O)*; γGlu = O=C(O)[C@H](CCC(=O)[*:2])N[*:1]; AEEA = NCCOCCOCC(=O)O; Sar = CNCC(=O)O

Key:
[1] = test system: classical complement pathway; assay: In vitro haemolysis assay (inhibition of classical complement pathway); assay type: cell-based, human; details: Table 3; human serum, sensitized sheep red blood cells; read-out: IC50[nM], in vitro analysis of inhibition of hemolysis
Procedure, shortened: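 Serially diluted compound (9 points) was preincubated 15 min at room temperature with diluted human serum, titrated per batch to give 70-90% maximal haemolysis, in Tris/casein buffer pH 7.4 with Mg2+/Ca2+. Antibody-sensitized sheep erythrocytes were then added for 30 min at 37° C, and the reaction was stopped with EDTA. Haemolysis was read at A405, with IC50 from 4PL fit.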

in vivo = assay: in vivo; set-up: species or system Cynomolgus monkeys (Macaca fascicularis); details: male, cynomolgus monkey, sc, 1840 nmol/kg, t½
Protocol: Healthy male Cynomolgus monkeys (Macaca fascicularis) received single subcutaneous administrations of each test substance. Compounds were formulated in 20 mM phosphate adjusted with NaOH to pH 7.5 and mannitol for isotonicity and dosed at 1840 nmol/kg. Blood was collected from a femoral vein from each animal at the following times: Pre-dose, 1, 2, 4, 8, 24, 48, 72, 96 and 120 h (10 sampling times). Blood was collected into serum separation tubes and allowed to clot at room temperature. The tubes were centrifuged and resulting serum was aliquoted and snap-frozen over dry-ice and stored at nominally −80° C. until analysis. All NHP studies were performed in accordance with animal welfare laws and regulations, including approval of the study by a local ethical review process.
In order to assess pharmacokinetic half-life (t %/), serum samples isolated from non-human primates at specific time points after dosing were analysed for total drug compound after sample preparation by solid phase extraction (SPE) and liquid chromatography mass spectrometry (LC-MS/MS) using analogue internal standard. Single measurement of serum concentrations were used for calculation of the pharmacokinetic parameters using the non-compartmental approach in Phoenix WinNonlin 6.3. Plasma terminal elimination half-life (ty) was determined as In(2)/λz where λz is the magnitude of the slope of the log linear regression of the log concentration versus time profile during the terminal phase.

Row | half-life (in vivo) [h] | SMILES | IC50 [1] [nM]
1 | 127 | CC[C@H](C)[C@@H]1NC(=O)[C@@H](NC(=O)[C@H](Cc2ccc(O)cc2)NC(=O)[C@H](CCC(=O)O)NC(=O)[C@H](CO)NC(C)=O)CSSC[C@@H](C(=O)N(C)CC(=O)N[C@@H](CCC(=O)O)C(=O)NCC(=O)N[C@@H](C)C(=O)N[C@@H](CCCCNC(=O)COCCOCCNC(=O)CC[C@H](NC(=O)COCCOCCNC(=O)CNC(=O)CC[C@H](NC(=O)CCCCCCCCCCCCCCCCC(=O)O)C(=O)O)C(=O)O)C(N)=O)NC(=O)[C@H](CCCNC(=N)N)NC(=O)[C@H](Cc2c[nH]cn2)NC(=O)[C@H](CCC(=O)O)NC(=O)CNC(=O)[C@H](Cc2c[nH]c3ccccc23)NC(=O)[C@H](CCC(=O)O)NC(=O)[C@H](CCC(N)=O)NC(=O)[C@H](Cc2cn(C)c3ccccc23)NC1=O [Compound 122] (Ac-SEYCI[Trp(1-Me)]QEWGEHRC[Sar]EGAK([AEEA-γGlu-AEEA-Gly-γGlu-C18 diacid])-NH2; disulfide 4-14) | < 500
2 | 112 | CC[C@H](C)[C@@H]1NC(=O)[C@@H](NC(=O)[C@H](Cc2ccccc2)NC(=O)[C@H](CCC(=O)O)NC(=O)[C@H](CO)NC(C)=O)CSSC[C@@H](C(=O)N(C)CC(=O)N[C@@H](CCC(=O)O)C(=O)NCC(=O)N[C@@H](CCC(=O)O)C(=O)NCCOCCOCC(=O)NCCOCCOCC(=O)N[C@@H](CCCCNC(=O)CC[C@H](NC(=O)CNC(=O)CC[C@H](NC(=O)CCCCCCCCCCCCCCCCC(=O)O)C(=O)O)C(=O)O)C(N)=O)NC(=O)[C@H](CCCNC(=N)N)NC(=O)[C@H](Cc2c[nH]cn2)NC(=O)[C@H](CCC(=O)O)NC(=O)CNC(=O)[C@H](Cc2c[nH]c3ccccc23)NC(=O)[C@H](CCC(=O)O)NC(=O)[C@H](CCC(N)=O)NC(=O)[C@H](Cc2cn(C)c3ccccc23)NC1=O [Compound 124] (Ac-SEFCI[Trp(1-Me)]QEWGEHRC[Sar]EGE[AEEA][AEEA]K([γGlu-Gly-γGlu-C18 diacid])-NH2; disulfide 4-14) | < 100
3 | 82 | CC[C@H](C)[C@@H]1NC(=O)[C@@H](NC(=O)[C@H](Cc2ccccc2)NC(=O)[C@H](CCC(=O)O)NC(=O)[C@H](CO)NC(C)=O)CSSC[C@@H](C(=O)N(C)CC(=O)N[C@@H](CCC(=O)O)C(=O)NCC(=O)N[C@@H](CCC(=O)O)C(=O)N[C@@H](CO)C(=O)N[C@@H](CCC(=O)O)C(=O)N[C@@H](CO)C(=O)N[C@@H](CCCCNC(=O)CC[C@H](NC(=O)CNC(=O)CC[C@H](NC(=O)CCCCCCCCCCCCCCCCC(=O)O)C(=O)O)C(=O)O)C(N)=O)NC(=O)[C@H](CCCNC(=N)N)NC(=O)[C@H](Cc2c[nH]cn2)NC(=O)[C@H](CCC(=O)O)NC(=O)CNC(=O)[C@H](Cc2c[nH]c3ccccc23)NC(=O)[C@H](CC(=O)O)NC(=O)[C@H](CCC(N)=O)NC(=O)[C@H](Cc2cn(C)c3ccccc23)NC1=O [Compound 139] (Ac-SEFCI[Trp(1-Me)]QDWGEHRC[Sar]EGESESK([γGlu-Gly-γGlu-C18 diacid])-NH2; disulfide 4-14) | < 100
4 | 100 | CC[C@H](C)[C@@H]1NC(=O)[C@@H](NC(=O)[C@H](Cc2ccccc2)NC(=O)[C@H](CCC(=O)O)NC(=O)[C@H](CO)NC(C)=O)CSSC[C@@H](C(=O)N(C)CC(=O)N[C@@H](CCC(=O)O)C(=O)NCC(=O)N[C@@H](CCC(=O)O)C(=O)NCCOCCOCC(=O)N[C@@H](CCC(=O)O)C(=O)N[C@@H](CO)C(=O)N[C@@H](CCCCNC(=O)CC[C@H](NC(=O)CNC(=O)CC[C@H](NC(=O)CCCCCCCCCCCCCCCCC(=O)O)C(=O)O)C(=O)O)C(N)=O)NC(=O)[C@H](CCCNC(=N)N)NC(=O)[C@H](Cc2c[nH]cn2)NC(=O)[C@H](CCC(=O)O)NC(=O)CNC(=O)[C@H](Cc2c[nH]c3ccccc23)NC(=O)[C@H](CC(=O)O)NC(=O)[C@H](CCC(N)=O)NC(=O)[C@H](Cc2cn(C)c3ccccc23)NC1=O [Compound 140] (Ac-SEFCI[Trp(1-Me)]QDWGEHRC[Sar]EGE[AEEA]ESK([γGlu-Gly-γGlu-C18 diacid])-NH2; disulfide 4-14) | < 100
